# In patent US9073821B2, “Hydroxamic acid derivative” (priority 2010, dated 2015):
# pIC50: −log10 of the molar value.
# Molecular target: Pseudomonas aeruginosa LpxC enzyme (Pseudomonas aeruginosa (strain ATCC 15692 / DSM 22644 / CIP 104116 / JCM 14847 / LMG 12228 / 1C / PRS 101 / PAO1), UniProt P47205)
# Experiment: biochemical
# Format: biochemical
# Details: class symbols A/B/C by IC50; Table 3; read-out: Enzyme inhibitory activity (inhibitory activity on Pseudomonas aeruginosa LpxC enzyme)
row,Compound,pIC50
1,"CNC(=O)C(C(=O)NO)N(C)C(=O)c1ccc(C#Cc2ccc(COCC(C)(C)N)cc2)cc1 (centres unmarked) [Compound 508, 2-[{[4-({4-[(2-amino-2-methylpropoxy)methyl]phenyl}ethynyl)phenyl]carbonyl}(methyl)amino]-N-hydroxy-N′-methylpropanediamide]",7.00 to 8.00
2,"CCOC1CN(Cc2ccc(C#Cc3ccc(C(=O)N(C)C(C(=O)NC)C(=O)NO)cc3)cc2)C1 (centres unmarked) [Compound 535, 2-[{[4-({4-[(3-ethoxyazetidin-1-yl)methyl]phenyl}ethynyl)phenyl]carbonyl}(methyl)amino]-N-hydroxy-N′-methylpropanediamide]",> 8.00
3,"CNC(=O)C(C(=O)NO)N(C)C(=O)c1ccc(C#Cc2cnn(C)c2)cc1 (centres unmarked) [Compound 504, N-hydroxy-N′-methyl-2-[methyl({4-[(1-methyl-1H-pyrazol-4-yl)ethynyl]phenyl}carbonyl)amino]propanediamide]",7.00 to 8.00
4,"CCOC1CN(Cc2ccc(C#Cc3ccc(C(=O)N(C)C(C(=O)NC)C(=O)NO)cc3)c(F)c2F)C1 (centres unmarked) [Compound 580, 2-[{[4-({4-[(3-ethoxyazetidin-1-yl)methyl]-2,3-difluorophenyl}ethynyl)phenyl]carbonyl}(methyl)amino]-N-hydroxy-N′-methylpropanediamide]",> 8.00

# Same assay, conditions: inhibitory activity on Pseudomonas aeruginosa LpxC enzyme, class symbols A/B/C; read-out: Enzyme inhibitory activity
row,pIC50,Compound
1,> 8.00,"Cc1cc(CNC(=O)C(NC(=O)c2ccc(-c3ccc(OCCO)cc3)cc2)C(=O)NO)no1 (centres unmarked) [Compound 133, N-hydroxy-2-({[4′-(2-hydroxyethoxy)biphenyl-4-yl]carbonyl}amino)-N′-[(5-methyl-1,2-oxazol-3-yl)methyl]propanediamide]"
2,> 8.00,"CNC(=O)C(C(=O)NO)N(C)C(=O)c1ccc(-c2ccc(OCCCN3CC(OC)C3)cc2)cc1 (centres unmarked) [Compound 276, N-hydroxy-2-[({4′-[3-(3-methoxyazetidin-1-yl)propoxy]biphenyl-4-yl}carbonyl)(methyl)amino]-N′-methylpropanediamide]"
3,< 7.00,"CN(C)CCNC(=O)C(NC(=O)c1ccc(-c2ccc(OCCO)cc2)cc1)C(=O)NO (centres unmarked) [Compound 123, N-[2-(dimethylamino)ethyl]-N′-hydroxy-2-({[4′-(2-hydroxyethoxy)biphenyl-4-yl]carbonyl}amino)propanediamide]"
4,7.00 to 8.00,"O=C(NC(C(=O)NO)C(=O)NO)c1ccc(-c2ccc(OCCO)cc2)cc1 [Compound 148, N,N′-dihydroxy-2-({[4′-(2-hydroxyethoxy)biphenyl-4-yl]carbonyl}amino)propanediamide]"
5,> 8.00,"CNC(=O)C(C(=O)NO)N(C)C(=O)c1ccc(C#Cc2ccc(CNCc3ccccc3)cc2)cc1 (centres unmarked) [Compound 330, 2-[{[4-({4-[(benzylamino)methyl]phenyl}ethynyl)phenyl]carbonyl}(methyl)amino]-N-hydroxy-N′-methylpropanediamide]"
6,> 8.00,"O=C(NC(C(=O)NO)C(=O)NCCOc1ccccc1)c1ccc(-c2ccc(OCCO)cc2)cc1 (centres unmarked) [Compound 138, N-hydroxy-2-({[4′-(2-hydroxyethoxy)biphenyl-4-yl]carbonyl}amino)-N′-(2-phenoxyethyl)propanediamide]"
7,> 8.00,"CNC(=O)C(C(=O)NO)N(C)C(=O)c1ccc(-c2ccc(SCCOC)cc2)cc1 (centres unmarked) [Compound 291, N-hydroxy-2-[({4′-[(2-methoxyethyl)sulfanyl]biphenyl-4-yl}carbonyl)(methyl)amino]-N′-methylpropanediamide]"
8,> 8.00,"CNC(=O)C(C(=O)NO)N(C)C(=O)c1ccc(-c2ccc(OCCF)cc2)cc1 (centres unmarked) [Compound 255, 2-[{[4′-(2-fluoroethoxy)biphenyl-4-yl]carbonyl}(methyl)amino]-N-hydroxy-N′-methylpropanediamide]"
9,> 8.00,"CNC(=O)C(C(=O)NO)N(C)C(=O)c1ccc(-c2ccc(OCc3coc(C)n3)cc2)cc1 (centres unmarked) [Compound 99, N-hydroxy-N′-methyl-2-[methyl({4′-[(2-methyl-1,3-oxazol-4-yl)methoxy]biphenyl-4-yl}carbonyl)amino]propanediamide]"

# More lines, now with the values behind:
row,Compound,pIC50
1,"CNC(=O)C(C(=O)NO)N(C)C(=O)c1ccc(-c2ccc(OC)c(F)c2)cc1 (centres unmarked) [Compound 216, 2-{[(3′-fluoro-4′-methoxybiphenyl-4-yl)carbonyl](methyl)amino}-N-hydroxy-N′-methylpropanediamide]",> 8.00
2,"CN(C)C(=O)CNC(=O)C(C(=O)NO)N(C)C(=O)c1ccc(-c2ccccc2)cc1 (centres unmarked) [Compound 173, 2-[(biphenyl-4-ylcarbonyl)(methyl)amino]-N-[2-(dimethylamino)-2-oxoethyl]-N′-hydroxypropanediamide]",< 7.00
3,"CNC(=O)C(C(=O)NO)N(C)C(=O)c1ccc(-c2cccc(C)n2)cc1 (centres unmarked) [Compound 295, N-hydroxy-N′-methyl-2-(methyl {[4-(6-methylpyridin-2-yl)phenyl]carbonyl}amino)propanediamide]",< 7.00
4,"CNC(=O)C(C(=O)NO)N(C)C(=O)c1ccc(-c2ccc3c(c2)cc(COCOC)n3C)cc1 (centres unmarked) [Compound 33, N-hydroxy-2-[(4-{2-[(methoxymethoxy)methyl]-1-methyl-1H-indol-5-yl}benzoyl)(methyl)amino]-N′-methylpropanediamide]",> 8.00
5,"CNC(=O)C(C(=O)NO)N(C)C(=O)c1ccc(-c2ccc3c(cnn3C)c2)cc1 (centres unmarked) [Compound 196, N-hydroxy-N′-methyl-2-{methyl[4-(1-methyl-1H-indazol-5-yl)benzoyl]amino}propanediamide]",> 8.00
6,"CN(C(=O)c1ccc(-c2ccccc2)cc1)C(C(N)=O)C(=O)NO (centres unmarked) [Compound 186, 2-[(biphenyl-4-ylcarbonyl)(methyl)amino]-N-hydroxypropanediamide]",7.00 to 8.00
7,"CNC(=O)C(C(=O)NO)N(C)C(=O)c1ccc(-c2cccc(C)c2)cc1 (centres unmarked) [Compound 29, N-hydroxy-N′-methyl-2-{methyl[(3′-methylbiphenyl-4-yl)carbonyl]amino}propanediamide]",> 8.00
8,"CNC(=O)C(C(=O)NO)N(C)C(=O)c1ccc(-c2ccc(NC3CCC3)cc2)cc1 (centres unmarked) [Compound 268, 2-[{[4′-(cyclobutylamino)biphenyl-4-yl]carbonyl}(methyl)amino]-N-hydroxy-N′-methylpropanediamide]",> 8.00
9,"CNC(=O)C(C(=O)NO)N(C)C(=O)c1ccc(-c2cnccn2)cc1 (centres unmarked) [Compound 309, N-hydroxy-N′-methyl-2-(methyl {[4-(pyrazin-2-yl)phenyl]carbonyl}amino)propanediamide]",< 7.00
10,"CNC(=O)C(C(=O)NO)N(C)C(=O)c1ccc(C#Cc2ccc(C(F)(F)F)cc2)cc1 (centres unmarked) [Compound 420, N-hydroxy-N′-methyl-2-{methyl[(4-{[4-(trifluoromethyl)phenyl]ethynyl}phenyl)carbonyl]amino}propanediamide]",7.00 to 8.00
11,"CNC(=O)C(C(=O)NO)N(C)C(=O)c1ccc(-c2ccc(NC)c(C(F)(F)F)c2)cc1 (centres unmarked) [Compound 68, N-hydroxy-N′-methyl-2-(methyl{[4′-(methylamino)-3′-(trifluoromethyl)biphenyl-4-yl]carbonyl}amino)propanediamide]",> 8.00
12,"CCOCc1ccc(-c2ccc(C(=O)N(C)C(C(=O)NC)C(=O)NO)cc2)cc1 (centres unmarked) [Compound 285, 2-[{[4′-(ethoxymethyl)biphenyl-4-yl]carbonyl}(methyl)amino]-N-hydroxy-N′-methylpropanediamide]",> 8.00
13,"CNC(=O)C(C(=O)NO)N(C)C(=O)c1ccc(-c2cc(F)c(NC)c(F)c2)cc1 (centres unmarked) [Compound 69, 2-[{[3′,5′-difluoro-4′-(methylamino)biphenyl-4-yl]carbonyl}(methyl)amino]-N-hydroxy-N′-methylpropanediamide]",> 8.00
